Laboratory results from patent publication US8188102B2, “Amide derivative for inhibiting the growth of cancer cells” (Hanmi Holdings Co., Ltd., priority 2007, dated 2012).

How the values were obtained:
[1] = tested on: SK-Br3 breast cancer cell line; assay: Cancer cell growth inhibition, SK-Br3 (SRB); conditions: Homo sapiens, SK-BR-3, 72 h, read-out: ID50 (nM) SK-Br3
[2] = tested on: A431 skin cancer cell line; assay: Cancer cell growth inhibition, A431 (SRB); conditions: Homo sapiens, A-431, 72 h, read-out: ID50 (nM) A431

In the case of CC#CC(=O)N1CC[C@H](Oc2cc3c(Nc4ccc(F)c(Cl)c4F)ncnc3cc2OC)C1 [Example 3, 1-((3S)-3-(4-(3-chloro-2,4-difluorophenylamino)-7-methoxyquinazolin-6-yloxy)pyrrolidin-1-yl)but-2-yn-1-one], the IC50 [1] is reported as 1300 nM and the IC50 [2] is reported as 37 nM.

C=CC(=O)N1CC(Oc2cc3c(Nc4ccc(F)c(Cl)c4F)ncnc3cc2OCCOC)C1 [Example 116, 1-(3-(4-(3-chloro-2,4-difluorophenylamino)-7-(2-methoxyethoxy)quinazolin-6-yloxy)azetidin-1-yl)prop-2-en-1-one] showed an IC50 [1] of 327 nM and an IC50 [2] of 883 nM.

Compound C=CC(=O)N1CCC(Oc2cc3c(Nc4ccccc4Cl)ncnc3cc2OC)CC1 [Example 69, 1-(4-(4-(2-chlorophenylamino)-7-methoxyquinazolin-6-yloxy)piperidin-1-yl)pro-2-pen-1-one] has an IC50 [1] of 1.7 nM and an IC50 [2] of 65 nM.

COc1cc2ncnc(Nc3ccc(F)c(Cl)c3F)c2cc1OC1CN(C(=O)/C=C/CN(C)C)C1 [Example 101, (E)-1-(3-(4-(3-chloro-2,4-difluorophenylamino)-7-methoxyquinazolin-6-yloxy)azetidin-1-yl)-4-(dimethylamino)but-2-en-1-one] gave an IC50 [1] of 11 nM and an IC50 [2] of 36 nM.

C=CC(=O)N1CCC(Oc2cc3c(Nc4ccc(C)c(C)c4)ncnc3cc2OC)CC1 [Example 47, 1-(4-(4-(3,4-dimethylphenylamino)-7-methoxyquinazolin-6-yloxy)piperidin-1-yl)pro-2-pen-1-one] gave an IC50 [1] of 10 nM and an IC50 [2] of 19 nM.

Compound C=CC(=O)NCCOc1cc2c(Nc3ccc(F)c(Cl)c3F)ncnc2cc1OC [Example 21, N-(2-(4-(3-chloro-2,4-difluorophenylamino)-7-methoxyquinazolin-6-yloxy)ethyl)acrylamide] has an IC50 [1] of 210 nM and an IC50 [2] of 699 nM.

Work on C=CC(=O)N1CCC(Oc2cc3c(Nc4ccc(C(C)C)cc4)ncnc3cc2OC)CC1 [Example 40, 1-(4-(4-(4-isopropylphenylamino)-7-methoxyquinazolin-6-yloxy)piperidin-1-yl)pro-2-pen-1-one] yielded an IC50 [1] of 37 nM and an IC50 [2] of 23 nM.

With C=C(CN1CCCCC1)C(=O)N1CC(Oc2cc3c(Nc4cccc(Cl)c4F)ncnc3cc2OC)C1 [Example 107, 1-(3-(4-(3-chloro-2-fluorophenylamino)-7-methoxyquinazolin-6-yloxy)azetidin-1-yl)-2-(piperidin-1-ylmethyl)prop-2-en-1-one] the IC50 [1] was 0.7 nM and the IC50 [2] was 2.4 nM.

Work on C=CC(=O)N1CCC(Oc2cc3c(Nc4cc(Cl)c(O)c(Cl)c4)ncnc3cc2OC)CC1 [Example 50, 1-(4-(4-(3,5-dichloro-4-hydroxyphenylamino)-7-methoxyquinazolin-6-yloxy)piperidin-1-yl)pro-2-pen-1-one] yielded an IC50 [1] of 91 nM and an IC50 [2] of 179 nM.

COc1cc2ncnc(Nc3ccc(F)c(Cl)c3F)c2cc1OC1CN(C(=O)/C=C/Cl)C1 [Example 33, (E)-3-chloro-1-(3-(4-(3-chloro-2,4-difluorophenylamino)-7-methoxyquinazolin-6-yloxy)azetidin-1-yl)pro-2-pen-1-one] was tested, and the IC50 [1] was 35 nM and the IC50 [2] was 44 nM.

C=CC(=O)N1CCC(Oc2cc3c(Nc4ccc(Cl)cc4)ncnc3cc2OC)CC1 [Example 70, 1-(4-(4-(4-chlorophenylamino)-7-methoxyquinazolin-6-yloxy)piperidin-1-yl)pro-2-pen-1-one] was tested, and the IC50 [1] was 2.1 nM and the IC50 [2] was 4.6 nM.

With COc1cc2ncnc(Nc3ccc(Cl)c(Cl)c3F)c2cc1OC1CCN(C(=O)/C=C/Cl)CC1 [Example 90, (E)-3-chloro-1-(4-(4-(3,4-dichloro-2-fluorophenylamino)-7-methoxyquinazolin-6-yloxy)piperidin-1-yl)prop-2-en-1-one] the IC50 [1] was 13 nM and the IC50 [2] was 39 nM.

C=CC(=O)N1CC[C@H](Oc2cc3c(Nc4ccc(Br)cc4F)ncnc3cc2OC)C1 [Example 9, 1-((3S)-3-(4-(4-bromo-2-fluorophenylamino)-7-methoxyquinazolin-6-yloxy)pyrrolidin-1-yl)pro-2-pen-1-one] gave an IC50 [1] of 58 nM and an IC50 [2] of 15 nM.

In the case of COc1cc2ncnc(Nc3ccc(F)c(Cl)c3F)c2cc1OC1CCN(C(=O)/C=C/C(=O)NO)CC1 [Example 88, (E)-4-(4-(4-(3-chloro-2,4-difluorophenylamino)-7-methoxyquinazolin-6-yloxy)piperidin-1-yl)-N-hydroxy-4-oxobut-2-enamide], the IC50 [1] is reported as over 1000 nM and the IC50 [2] is reported as 187 nM.

COc1cc2ncnc(Nc3cccc(Cl)c3F)c2cc1O[C@H]1CCN(C(=O)/C=C/CN(C)C)C1 [Example 96, (E)-1-((3S)-3-(4-(3-chloro-2-fluorophenylamino)-7-methoxyquinazolin-6-yloxy)pyrrolidin-1-yl)-4-(dimethylamino)but-2-en-1-one] gave an IC50 [1] of 46 nM and an IC50 [2] of 8 nM.

Work on COc1cc2ncnc(Nc3cccc(Cl)c3F)c2cc1OC1CCN(C(=O)/C=C/CN(C)C)CC1 [Example 100, (E)-1-(4-(4-(3-chloro-2-fluorophenylamino)-7-methoxyquinazolin-6-yloxy)piperidin-1-yl)-4-(dimethylamino)but-2-en-1-one] yielded an IC50 [1] of 15 nM and an IC50 [2] of 76 nM.

C=CC(=O)N1CCC(Oc2cc3c(Nc4ccc(Cl)c(C)c4)ncnc3cc2OC)CC1 [Example 60, 1-(4-(4-(4-chloro-3-methylphenylamino)-7-methoxyquinazolin-6-yloxy)piperidin-1-yl)pro-2-pen-1-one] gave an IC50 [1] of 261 nM and an IC50 [2] of 93 nM.

With C=C(C)C(=O)N1CC(Oc2cc3c(Nc4ccc(F)c(Cl)c4F)ncnc3cc2OC)C1 [Example 29, 1-(3-(4-(3-chloro-2,4-difluorophenylamino)-7-methoxyquinazolin-6-yloxy)azetidin-1-yl)-2-methylpro-2-pen-1-one] the IC50 [1] was 19 nM and the IC50 [2] was 29 nM.

C=CC(=O)N1CCC(Oc2cc3c(Nc4ccc(F)c(C#N)c4)ncnc3cc2OC)CC1 [Example 66, 5-(6-(1-acryloylpiperidin-4-yloxy)-7-methoxyquinazolin-4-ylamino)-2-fluorobenzonitrile] gave an IC50 [1] of 1 nM and an IC50 [2] of 8 nM.

C=CC(=O)N1CC[C@H](Oc2cc3c(Nc4ccc5c(cnn5Cc5cccc(F)c5)c4)ncnc3cc2OC)C1 [Example 12, 1-((3S)-3-(4-(1-(3-fluorobenzyl)-1H-indazol-5-ylamino)-7-methoxyquinazolin-6-yloxy)pyrrolidin-1-yl)pro-2-pen-1-one] gave an IC50 [1] of 3 nM and an IC50 [2] of 19 nM.

Work on C=CC(=O)N1CCC(Oc2cc3c(Nc4cccc(C#N)c4)ncnc3cc2OC)CC1 [Example 56, 3-(6-(1-acryloylpiperidin-4-yloxy)-7-methoxyquinazolin-4-ylamino)benzonitrile] yielded an IC50 [1] of 0.7 nM and an IC50 [2] of 3.7 nM.

C=CC(=O)N1CC[C@@H](Oc2cc3c(Nc4ccc(F)c(Cl)c4F)ncnc3cc2OC)C[C@@H]1C(=O)NO [Example 137, (2R,4R)-1-acryloyl-4-(4-(3-chloro-2,4-difluorophenylamino)-7-methoxyquinazolin-6-yloxy)-N-hydroxypiperidin-2-carboxamide] was tested, and the IC50 [1] was 1.3 nM and the IC50 [2] was 1.7 nM.

With CCN(CC)C/C=C/C(=O)N1CC[C@H](Oc2cc3c(Nc4ccc(F)c(Cl)c4F)ncnc3cc2OC)C1 [Example 93, (E)-1-((3S)-3-(4-(3-chloro-2,4-difluorophenylamino)-7-methoxyquinazolin-6-yloxy)pyrrolidin-1-yl)-4-(diethylamino)but-2-en-1-one] the IC50 [1] was 40 nM and the IC50 [2] was 28 nM.

For COc1cc2ncnc(Nc3ccc(F)c(Cl)c3F)c2cc1O[C@H]1CCN(C(=O)/C=C/CN2CCCC2)C1 [Example 95, (E)-1-((3S)-3-(4-(3-chloro-2,4-difluorophenylamino)-7-methoxyquinazolin-6-yloxy)pyrrolidin-1-yl)-4-(pyrrolidin-1-yl)but-2-en-1-one], the IC50 [1] was 23 nM and the IC50 [2] was 8 nM.

In the case of C=CC(=O)N1CCC(Oc2cc3c(Nc4cccc([N+](=O)[O-])c4)ncnc3cc2OC)CC1 [Example 74, 1-(4-(7-methoxy-4-(3-nitrophenylamino)quinazolin-6-yloxy)piperidin-1-yl)pro-2-pen-1-one], the IC50 [1] is reported as 1 nM and the IC50 [2] is reported as 11 nM.

Work on C=CC(=O)N1CCC(Oc2cc3c(Nc4ccc(Cl)cc4O)ncnc3cc2OC)CC1 [Example 53, 1-(4-(4-(4-chloro-2-hydroxyphenylamino)-7-methoxyquinazolin-6-yloxy)piperidin-1-yl)pro-2-pen-1-one] yielded an IC50 [1] of 21 nM and an IC50 [2] of 32 nM.

Compound C=CC(=O)N1CCC(Oc2cc3c(Nc4ccc(F)c(C)c4)ncnc3cc2OC)CC1 [Example 46, 1-(4-(4-(4-fluoro-3-methylphenylamino)-7-methoxyquinazolin-6-yloxy)piperidin-1-yl)pro-2-pen-1-one] has an IC50 [1] of 2 nM and an IC50 [2] of 8 nM.

For C=CC(=O)N1CCC(Oc2cc3c(N[C@H](C)c4ccccc4)ncnc3cc2OC)CC1 [Example 35, (R)-1-(4-(7-methoxy-4-(1-phenylethylamino)quinazolin-6-yloxy)piperidin-1-yl)pro-2-pen-1-one], the IC50 [1] was 3 nM and the IC50 [2] was 514 nM.

For C=CC(=O)N1CCC(Oc2cc3c(Nc4ccc(Oc5ccccc5)cc4)ncnc3cc2OC)CC1 [Example 48, 1-(4-(7-methoxy-4-(4-phenoxyphenylamino)quinazolin-6-yloxy)piperidin-1-yl)pro-2-pen-1-one], the IC50 [1] was 8 nM and the IC50 [2] was over 1000 nM.

COc1cc2ncnc(Nc3ccc(F)c(Cl)c3F)c2cc1OC1CCN(C(=O)C=C(C)C)CC1 [Example 81, 1-(4-(4-(3-chloro-2,4-difluorophenylamino)-7-methoxyquinazolin-6-yloxy)piperidin-1-yl)-3-methylbut-2-en-1-one] was tested, and the IC50 [1] was 141 nM and the IC50 [2] was 38 nM.

COc1cc2ncnc(Nc3ccc(Cl)c(Cl)c3F)c2cc1OC1CCN(C(=O)/C=C\C(=O)O)CC1 [Example 86, (Z)-4-(4-(4-(3,4-dichloro-2-fluorophenylamino)-7-methoxyquinazolin-6-yloxy)piperidin-1-yl)-4-oxobut-2-enoic acid] gave an IC50 [1] of over 1000 nM and an IC50 [2] of 322 nM.

Compound C=CC(=O)N1CCC(Oc2cc3c(Nc4ccc(Br)c(F)c4)ncnc3cc2OC)CC1 [Example 62, 1-(4-(4-(4-bromo-3-fluorophenylamino)-7-methoxyquinazolin-6-yloxy)piperidin-1-yl)pro-2-pen-1-one] has an IC50 [1] of 6 nM and an IC50 [2] of 7 nM.
